Laboratory results published in PubChem BioAssay AID2024 (Southern Research Specialized Biocontainment Screening …, 2009).
Active and inactive are the calls of the source. No rule for the calls is given here.

System: virus-infected cells, titer reduction, log titer change
Test: antiviral yield reduction in infected cells – cell-based, 55 compounds from dose-response study, confirmation (AID 2024)
Conditions: at 10 µM (top of the series)

SMILES | log titer change, negative = reduction
Cn1c(=O)[nH]c(=O)c2c1nc(N1CCN(C(c3ccccc3)c3ccccc3)CC1)n2CCO | -1.17
CC1=CC(C)(C)N2C(=O)C3(NCCc4c3[nH]c3ccccc43)c3cc(C)cc1c32 (stereo not drawn) | -1.27
CCN(CC)CCNC(=O)c1sc2ncn(CC(=O)Nc3ccc(C)c(Cl)c3)c(=O)c2c1C | 0.5 (inactive)
CCN1CCN(CCCNC(=O)c2cc3c(s2)-c2ccccc2OC3)CC1 | -0.5 (inactive)

Same assay, conditions: at 20 µM (top of the series)

SMILES | log titer change, negative = reduction
CCN1CCN(c2ncc(C(=O)Nc3cc(Cl)c(OC)cc3OC)c3ccccc23)CC1 | -0.17 (inactive)
CCCN1CCN(CCCNC(=O)c2cc3c(s2)-c2ccccc2OC3)CC1 | 0 (inactive)
Cc1ccc(-c2cc(C(=O)NCCCN3CCCC3)c3ccccc3n2)cc1C | 0.19 (inactive)
Cc1c(Cc2ccccc2)c(NCCN(C)C)n2c(nc3ccccc32)c1C#N | 0.43 (inactive)
COc1cc2c(OC(C)=O)c3c(c(-c4ccc5c(c4)OCO5)c2cc1OC)C(=O)OC3 | -2
NCCCNc1nc(N)c([N+](=O)[O-])c(NC2CCCCC2)n1 | -4.74
CCN(CC)CCNC(=O)C1CCN(S(=O)(=O)c2c(C)noc2/C=C/c2ccccc2F)CC1 | 0.27 (inactive)
Cc1ccc2cc(C#N)c(N3CCCN(C(=S)NCCCN(C)C)CC3)nc2c1 | -0.02 (inactive)
O=C(CSc1nc2ccccc2c(=O)n1-c1ccc(F)cc1F)Nc1ccc2c(c1)CCC2 | -2.18
COc1ccc(C2c3ccc4ccccc4c3Oc3ncn(CCO)c(=N)c32)cc1 (stereo not drawn) | 0.39 (inactive)
CC1CCCC(C)N1CCCNC(=O)c1cc2c(s1)-c1ccccc1OC2 (stereo not drawn) | 0.43 (inactive)
CCN(CC)CCn1c(=N)n(CC(=O)c2ccc(Br)s2)c2ccccc21 | 0.31 (inactive)
CCN(CC)CCCC(C)NC(=O)c1c(NC(=O)c2ccccc2)sc2c1CCCC2 (stereo not drawn) | 0.55 (inactive)
CC1CCCN(CCCNC(=O)c2cc3c(s2)-c2ccccc2OC3)C1 (stereo not drawn) | -0.41 (inactive)
COc1ccc(-c2csc(N(CCCN(C)C)C(=O)c3ccccc3Cl)n2)cc1 | -1.5
CCN(CC)CCCNC(=S)N1CCN(c2nc(-c3ccccc3)cs2)CC1 | -0.57 (inactive)
CCOc1ccc(/C=C/c2nc(C#N)c(NCCCN(C)C)o2)cc1 | 0.31 (inactive)
Brc1ccc2c(c1)CN1CCCC1=N2 | -1.9
CCN1CCN(CCCNC(=O)C2CCCN(c3nc4c(C)cc(C)cc4s3)C2)CC1 (stereo not drawn) | -0.36 (inactive)
CN(C)CCCN1c2ccc([N+](=O)[O-])cc2CCc2cc([N+](=O)[O-])ccc21 | 0 (inactive)
COc1ccc(C2c3ccc4ccccc4c3Oc3ncn(CCCO)c(=N)c32)cc1OC (stereo not drawn) | 0.54 (inactive)
CC1CCN(CCCNC(=O)c2cc3c(s2)-c2ccccc2OC3)CC1 | 0.43 (inactive)
CC[C@@H](C(=O)[C@@H](C)[C@@H](O)[C@H](C)CCc1ccc(C)c(O)c1C(=O)O)[C@H]1O[C@](CC)([C@H]2CC[C@](O)(CC)[C@H](C)O2)C[C@@H]1C | 0.14 (inactive)
Cc1cccn2c(=O)c3cc(C(=O)NCCN4CCOCC4)c(=N)n(Cc4ccc(F)cc4)c3nc12 | -0.03 (inactive)
CCN(CC)CCCNC(=O)c1cc2c(-c3cccc(OC)c3)nn(C)c2s1 | 0.93 (inactive)

SMILES | log titer change, negative = reduction
N=C1C(c2nc(-c3ccc(Cl)cc3)cs2)=C(O)CN1CCCN1CCOCC1 | 1.48 (inactive)
CCOC(=O)c1c(CN2CCN(CCO)CC2)n(-c2ccccc2)c2cc(Br)c(O)cc12 | -0.07 (inactive)
O=C(Oc1ccccc1)c1ccc(-n2cnnn2)cc1 | -0.73 (inactive)
CCOc1ccc(NC(=O)c2c(NC(=O)CN3CCN(C)CC3)sc3c2CCC3)cc1 | 0 (inactive)
Cc1ccc(C)c(N2CCN(CCCNC(=O)CCC(=O)N3CCOc4ccc(Cl)cc43)CC2)c1 | -0.03 (inactive)
Cc1ccc2oc(=O)c3cc(C(=O)NCCCN4CC(C)CC(C)C4)sc3c2c1 (stereo not drawn) | 0.31 (inactive)
CN(CCCNC(=O)c1cc2c(Cl)nc3ccccc3c2s1)Cc1ccccc1 | 0.43 (inactive)
O=C(CN1C(=O)/C(=C/c2ccc(C(F)(F)F)cc2)Sc2ccccc21)NCCCN1CCOCC1 | -0.16 (inactive)
CN(C)CCCN(C(=O)c1ccc2c(c1)OCCO2)c1nc2ccc(Cl)cc2s1 | -0.33 (inactive)
Cc1c(NC(=O)COC(=O)c2cc(-c3ccc(-c4ccccc4)cc3)nc3ccccc23)c(=O)n(-c2ccccc2)n1C | 0.31 (inactive)
CC(C)c1oc(=O)cc2c1[C@@H](O)[C@H]1OC(=O)[C@@]3(C)CC[C@@H](O)[C@@]2(C)C13 (stereo partly drawn) | -1.17
CN(C)CCCNC(=S)N1CCN(c2nc(-c3ccccc3)cs2)CC1 | -0.02 (inactive)
CCN1CCN(CCCNC(=O)c2ccc3c(Cl)c4c(nc3c2)CCCC4)CC1 | -0.02 (inactive)
CN(C)CCCNC(=O)c1cc2sc3ccccc3c2s1 | -0.17 (inactive)
CN1CCN(CCNC(=O)c2ccc3nc(-c4ccc(F)cc4)c(-c4ccc(F)cc4)nc3c2)CC1 | -0.03 (inactive)
COc1ccc(C2c3c(ncn(CCN4CCOCC4)c3=N)Oc3ccc4ccccc4c32)cc1 (stereo not drawn) | 0.93 (inactive)
Cc1ccc2[nH]c(=O)c(CN(CCCN(C)C)C(=O)Nc3ccc(Cl)cc3)cc2c1 | -2.15
COc1cc(CNC(C)(C)CO)cc(Br)c1OCc1ccc(Cl)cc1 | 0.27 (inactive)
CN1CCN(CCCN2c3ccccc3Sc3ccc(Cl)cc32)CC1 | -0.64 (inactive)
CN(C)CC(O)COc1ccc(C(C)(C)c2ccc(OCC(O)CN(C)C)cc2)cc1 (stereo not drawn) | -1.17
Cc1cc(C)cc(SCc2noc(C(=O)NCCN(C)C)c2C(=O)NCCN(C)C)c1 | -0.17 (inactive)
CC(C)c1oc(=O)cc2c1[C@@H](O)[C@H]1OC(=O)[C@@]3(C)C[C@@H](O)[C@@H](O)[C@@]2(C)C13 (stereo partly drawn) | -0.25 (inactive)
CCCN(CCC)CCCNC(=S)Nc1ccc2nc(N3CCCC3)cc(C)c2c1 | -0.33 (inactive)
O=C(CSc1nc2ccccc2c(=O)n1-c1ccc(F)cc1)Nc1ccc2c(c1)CCC2 | -0.69 (inactive)
